This test has as its system KB. Kind of test: Cytotoxicity was evaluated by using KB/P cancer cells. It is filed as functional, cell-based. As to conditions: Homo sapiens.

In turn, `O=S(=O)(CC#CCCCCC#CCO)c1ccccc1` came in with a half-inhibitory concentration (IC50) of 5.3 µM.

These data come from ChEMBL document CHEMBL1128912, “DNA cleavage of novel propargylic sulfones. Enhancement of potency via intercalating interaction” (Bioorg Med Chem Lett, 1996).
